Assay results reported in US7655465B2, “Methods for ex vivo propagation of somatic hair follicle stem cells” (Massachusetts Institute of Technology, priority 2004, dated 2010).

How the values were obtained:
[1] = tested on: hair follicle epithelial cell cultures; assay: Limiting dilution cloning of hair follicle epithelial cells with and without purine supplementation; type: cell-based, mouse; conditions: for Cell clone efficiency, Cloning Condition Purine-supplemented (positive wells/total wells) / Cell clone efficiency, Cloning Condition Purine-free (positive wells/total wells): limiting dilution in 96 well plates; for Cell clone efficiency, Cloning Condition Purine-supplemented (positive wells/total wells): cloned in the presence of the purine used for initial outgrowth (400 uM); for Cell clone efficiency, Cloning Condition Purine-free (positive wells/total wells): cultures grown out with 400 uM purine, cloned without purine
Source text: After outgrowth of the follicle epithelial cells, cultures were trypsinized to harvest cells for secondary culture. […] In this manner, purine metabolite-dependent clonal expansion was verified. […] Seventeen Xn-derived clones were transferred to 24-well plates, and 15 survived expansion to full scale cultures for cryo-preservation.

[2] = tested on: mouse whisker follicle epithelial cells; assay: Outgrowth and cell counts of purine-supplemented mouse whisker hair follicle cultures; type: cell-based; conditions: 400 uM purine
Source text: Intact mouse whisker hair follicles were dissected from the skin under sterile conditions. The hair shaft was resected at its point of exit from the follicle. The intact follicle was then digested with trypsin, repeatedly washed, and filtered with a nylon mesh to remove external cells that adhere to the follicle capsule. The follicle was then opened with a single longitudinal incision and place in culture medium supplemented with 10% dialyzed fetal bovine serum, epidermal growth factor, and one of three different purine nucleoside metabolites (Hypoxyanthine, xanthosine, or xanthine) each supplemented to 400 uM.
Confluent primary cultures were transferred into to 25-cm^2 flasks. Seven days after this transfer, cell counts were performed before transferring cultures to 75-cm^2 flasks.

[3] = tested on: adult stem cell-enriched populations from skeletal muscle, pancreas or small intestinal epithelium of XPRT-transgenic mice; assay: Proliferation of adult stem cell-enriched populations explanted from XPRT-transgenic mice in xanthine-supplemented medium; type: cell-based, mouse; conditions: cells explanted from XPRT-transgenic mice
Source text: We have generated transgenic mice ubiquitously expressing the xanthine phosphoribosyltransferase (XPRT) gene. We used the gene encoding for XPRT from the protozoan Leismania donovani. The XPRT enzyme can convert Xanthine into xanthosine monophosphate, the critical precursor for cellular guanine nucleotides. This enzyme has no mammalian counterpart and its substrate can enter the cell via ubiquitously expressed nucleobase transporters. Therefore, we can control the kinetics of adult stem cells expressing XPRT by supplementing with or depriving the culture medium of xanthine. In the presence of xanthine, XPRT-expressing cells increase their cellular level of guanine nucleotides independently of their normal endogenous pathway involving the conversion of inosine monophosphate to xanthosine monophosphate by the enzyme inosine monophosphate dehydrogenase.
We have generated transgenic mice ubiquitously expressing the XPRT gene under the control of the chicken β-actin/CMV enhancer. […] We have also shown that the culture of pancreatic cells from one of the transgenic lines gives rise to clusters of small cells with large nuclei. This feature is typical of ductal cells, from which a subset is believed to correspond to the pancreatic adult stem cells. […]

SMILES | Cell clone efficiency, Cloning Condition Purine-supplemented (positive wells/total wells) [1] | Cell clone efficiency, Cloning Condition Purine-free (positive wells/total wells) [1] | Promotion of enhanced growth of mouse whisker follicle epithelial cells (comparison of purines) [2] | Order of reaching confluency of primary cultures ([2]; three hair follicles in one well of a 24-well plate) | Yield of cell clones and dependence on the purine ([1]; limiting dilution cloning, summary of Table 1) | Proliferation in xanthine-supplemented culture medium [3]
O=c1[nH]cnc2nc[nH]c12 [Hx, hypoxanthine] | 6/480 | 0/96 | – | – | – | –
O=c1[nH]c(=O)c2[nH]cnc2[nH]1 [Xn, xanthine] | 50/480 | 4/96 | worked the best | reached confluency first | significant number of cell clones with a marked dependence on Xn | enhanced proliferation
O=c1[nH]c(=O)c2ncn([C@@H]3O[C@H](CO)[C@@H](O)[C@H]3O)c2[nH]1 [Xs, xanthosine] | 1/480 | 0/96 | – | – | – | –
